Legend:
[1] = molecular target: T1, Excitatory amino acid transporter 3 (Homo sapiens) (UniProt P43005); assay: Substrate activity at human EAAT3 expressed in HEK293 cells at 1000 uM relative to glutamate by FLIPR membrane potential assay; type: functional, cell-based
T1 sequence (whole entry): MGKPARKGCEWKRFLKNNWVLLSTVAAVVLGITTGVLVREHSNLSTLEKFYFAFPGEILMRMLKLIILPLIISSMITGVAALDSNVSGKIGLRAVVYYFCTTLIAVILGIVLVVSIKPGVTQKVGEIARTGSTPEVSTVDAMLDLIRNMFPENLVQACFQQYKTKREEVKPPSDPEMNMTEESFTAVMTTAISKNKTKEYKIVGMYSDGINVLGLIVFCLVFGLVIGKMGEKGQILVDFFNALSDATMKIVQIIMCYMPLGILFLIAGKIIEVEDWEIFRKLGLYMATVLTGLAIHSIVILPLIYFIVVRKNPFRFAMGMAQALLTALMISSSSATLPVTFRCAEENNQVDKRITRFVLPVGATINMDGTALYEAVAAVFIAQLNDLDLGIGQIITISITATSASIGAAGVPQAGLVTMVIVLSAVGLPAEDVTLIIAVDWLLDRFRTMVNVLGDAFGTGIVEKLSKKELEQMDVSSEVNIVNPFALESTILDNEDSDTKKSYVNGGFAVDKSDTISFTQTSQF

[2] = molecular target: Excitatory amino acid transporter 1 (Homo sapiens) (UniProt P43003); assay: Substrate activity at human EAAT1 expressed in HEK293 cells at 1000 uM relative to glutamate by FLIPR membrane potential assay; type: functional, cell-based
Chain of Excitatory amino acid transporter 1 (Homo sapiens) (P43003 whole entry): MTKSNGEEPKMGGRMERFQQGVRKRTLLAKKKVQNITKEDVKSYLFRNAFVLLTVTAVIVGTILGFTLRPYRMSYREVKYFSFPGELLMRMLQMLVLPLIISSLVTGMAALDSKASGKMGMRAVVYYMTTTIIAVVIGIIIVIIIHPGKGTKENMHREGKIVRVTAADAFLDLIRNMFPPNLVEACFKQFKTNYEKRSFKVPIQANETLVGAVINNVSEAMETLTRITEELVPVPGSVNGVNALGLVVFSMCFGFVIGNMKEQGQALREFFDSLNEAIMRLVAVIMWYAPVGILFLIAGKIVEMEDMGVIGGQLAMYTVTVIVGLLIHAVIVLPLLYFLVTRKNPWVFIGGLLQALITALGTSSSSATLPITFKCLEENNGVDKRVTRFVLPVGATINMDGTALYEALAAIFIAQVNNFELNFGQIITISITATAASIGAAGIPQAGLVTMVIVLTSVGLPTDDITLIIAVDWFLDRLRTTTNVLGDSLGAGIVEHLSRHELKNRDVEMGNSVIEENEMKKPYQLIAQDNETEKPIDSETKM

[3] = molecular target: T1, Excitatory amino acid transporter 3 (Homo sapiens); assay: Substrate activity at human EAAT3 expressed in HEK293 cells by FLIPR membrane potential assay; type: functional, cell-based
[4] = molecular target: Excitatory amino acid transporter 2 (Homo sapiens) (UniProt P43004); conditions: HEK293
Chain of Excitatory amino acid transporter 2 (Homo sapiens) (P43004 whole entry): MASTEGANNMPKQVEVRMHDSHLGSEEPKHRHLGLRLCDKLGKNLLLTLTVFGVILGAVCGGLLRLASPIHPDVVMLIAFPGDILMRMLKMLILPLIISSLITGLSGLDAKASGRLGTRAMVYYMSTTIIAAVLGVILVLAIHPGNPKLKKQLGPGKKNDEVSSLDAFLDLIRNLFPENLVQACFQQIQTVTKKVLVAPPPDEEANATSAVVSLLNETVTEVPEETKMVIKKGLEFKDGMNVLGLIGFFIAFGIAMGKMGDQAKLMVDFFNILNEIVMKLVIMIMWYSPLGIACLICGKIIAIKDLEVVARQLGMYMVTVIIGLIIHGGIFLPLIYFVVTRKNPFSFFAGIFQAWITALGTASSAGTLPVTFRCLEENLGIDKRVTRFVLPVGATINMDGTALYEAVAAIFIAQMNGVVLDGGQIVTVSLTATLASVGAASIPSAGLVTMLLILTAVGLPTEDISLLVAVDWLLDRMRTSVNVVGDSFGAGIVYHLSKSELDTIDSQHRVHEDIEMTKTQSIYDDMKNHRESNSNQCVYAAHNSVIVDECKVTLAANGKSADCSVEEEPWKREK
Description: Substrate activity at human EAAT2 expressed in HEK293 cells by FLIPR membrane potential assay

[5] = molecular target: Excitatory amino acid transporter 1 (Homo sapiens) (UniProt P43003); assay: Substrate activity at human EAAT1 expressed in HEK293 cells by FLIPR membrane potential assay; type: functional, cell-based
[6] = molecular target: Excitatory amino acid transporter 1 (Homo sapiens) (UniProt P43003); assay: Substrate activity at human EAAT1 expressed in HEK293 cells relative to glutamate by FLIPR membrane potential assay; type: functional, cell-based

Structure (SMILES)	Activity [1] [%]	Activity [2] [%]	pKm [3]	pKm [4]	pKm [5]	Activity [6] [%]
N[C@H](C(=O)O)[C@H]1CC[C@@H]1C(=O)O	48	72				
N[C@@H](CCC(=O)O)C(=O)O			5	4.7	5.1	
N[C@H](C(=O)O)[C@@H]1CC[C@H]1C(=O)O					4	94

From ChEMBL document CHEMBL1137310, “Stereoselective chemoenzymatic synthesis of the four stereoisomers of l-2-(2-carboxycyclobutyl)glycine and pharmacological characterization at human excitatory amino acid transporter subtypes 1, 2, and 3” (J Med Chem, 2006)
